In patent US6861555B2, “Calcium dicarboxylate ethers, methods of making same, and treatment of vascular disease and diabetes therewith” (Warner-Lambert Company, priority 2000, dated 2005):
Where a name gives a salt, the structure may show the parent alone.

Legend:
[1] = Bulk density (loose and tapped) of CI-1027 lots; details: for Bulk Density Loose / Bulk Density Tapped: per lot
rat hepatocytes = test: In vitro metabolism in rat hepatocytes using radiolabeled compound; type: in vitro ADME
[2] = Pharmacokinetics of CI-1027 in monkey; type: in vivo
[3] = in vivo
Protocol: Metabolite profiling is performed by HPLC with radiometric detection and metabolites arc identified by LC/RAM/MS/MS.

[4] = system: Lp(a) and other lipoprotein parameters; test: Effects on Lp(a) and other lipoprotein parameters, oral gavage, transgenic mouse study; type: in vivo, Lp(a) transgenic mice; parameters: maximum decrease in total plasma cholesterol: dose or concentration left out as unconfirmed
Protocol: (§1) The effects of CI-1027 of Formula II, Crystalline Form 1, on Lp(a) and other lipoprotein parameters in two models of elevated Lp(a) were determined by the following in vivo assays
(§2) Cynomolgus macaque monkeys and Lp(a) transgenic mice are dosed with CI-1027 at 3, 10, 30, 100, or 300 mg/kg for 2 weeks by oral gavage. […] In the transgenic mouse study, female mice were allocated into five groups with equivalent Lp(a) levels, and dosed by oral gavage with either vehicle alone or vehicle plus CI-1027 (3, 10, 30, and 100 mg/kg/day). Blood is sampled weekly (2 weeks prior to treatment, 2 weeks on treatment).

plasma proteins = test: In vitro binding to plasma proteins; type: in vitro ADME
[5] = system: Lp(a) and other lipoprotein parameters; test: Effects on Lp(a) and other lipoprotein parameters, oral gavage for 2 weeks, monkeys; type: in vivo, Cynomolgus macaque monkeys
Protocol: as §1, §2

[6] = Mean recovery of 14C dose in excreta, intact and bile-fistula cannulated rats; type: in vivo, rat; details: 10 mg/kg
[7] = Mean recovery of 14C dose in excreta, intact and bile-fistula cannulated monkeys; type: in vivo, monkey; details: 10 mg/kg
monkey hepatocytes = test: In vitro metabolism in monkey hepatocytes using radiolabeled compound; type: in vitro ADME
[8] = Pharmacokinetics of CI-1027 in rat; type: in vivo
[9] = Pharmacokinetics of CI-1027 in dog; type: in vivo
[10] = Pharmacokinetics of CI-1027, species not stated; type: in vivo
dog hepatocytes = test: In vitro metabolism in dog hepatocytes using radiolabeled compound; type: in vitro ADME
[11] = Observed electrostatic charge retention of bulk product; type: physicochemical; details: compared with amorphous product / salts dried without humidification
From the text: Additional analysis on the post-humidification dried dialkylcarboxylic acid ether monocalcium salt (II) is indicative of the formation of a salt which is associated with between about 0.1 and about 1 molar equivalent of water per equivalent of dialkylcarboxylic acid ether calcium salt (II), as shorn in FIGS. 1 and 15, for example.

[12] = Salt form and hygroscopic status: comparison of salts of 72953; type: physicochemical; details: after complete drying
From the text: Following the general procedure of Example 1, 72953 was reacted with sodium hydroxide, potassium hydroxide, and acetylcholine in stoichiometric ratios of 1:1 per dialkanoic acid molecule, and 2:1 per dialkanoic acid molecule. The properties of the solids thus prepared, following complete drying, were compared to the calcium salt (CI-1027) from Example 1.

[13] = in vivo, other: intravenous (IV) and per orals (PO), intravenous (IV) and per orals (PO), read-out: apparent elimination half-life

Compound: CC(C)(CCCCOCCCCC(C)(C)C(=O)[O-])C(=O)[O-].[Ca+2] [listing 1 of 2 here]
- Bulk Density Loose [1]: 0.336 g/mL
- Bulk Density Tapped [1]: 0.439 g/mL

Compound: CC(C)(CCCCOCCCCC(C)(C)C(=O)[O-])C(=O)[O-].[Ca+2] [listing 2 of 2 here]
- bulk density, average ([1]; amorphous form): about 0.3 gm/mL

Compound: 6-(5-carboxy-5-methyl-hexyloxy)-2,2-dimethylhexanoic acid monocalcium salt hydrate, Crystalline Form 1 [Example 1]
- bulk density following tapping, average ([1]; highly crystalline salt after humidification process): about 0.4 g/mL

Compound: CC(C)(CCCCOCCCCC(C)(C)C(=O)[O-])C(=O)[O-].[Ca+2] [CD-3055]
- Bulk Density Loose [1]: 0.280 g/mL
- Bulk Density Tapped [1]: 0.315 g/mL

Compound: CC(C)(CCCCOCCCCC(C)(C)C(=O)[O-])C(=O)[O-].[Ca+2] [CD-3082]
- Bulk Density Loose [1]: 0.234 g/mL
- Bulk Density Tapped [1]: 0.337 g/mL

Compound: CC(C)(CCCCOCCCCC(C)(C)C(=O)[O-])C(=O)[O-].[Ca+2] [CD-3102]
- Bulk Density Loose [1]: 0.215 g/mL
- Bulk Density Tapped [1]: 0.270 g/mL

Compound: CC(C)(CCCCOCCCCC(C)(C)C(=O)[O-])C(=O)[O-].[Ca+2] [CD-3103]
- Bulk Density Loose [1]: 0.343 g/mL
- Bulk Density Tapped [1]: 0.484 g/mL

Compound: CC(C)(CCCCOCCCCC(C)(C)C(=O)[O-])C(=O)[O-].[Ca+2] [CD-3111]
- Bulk Density Loose [1]: 0.218 g/mL
- Bulk Density Tapped [1]: 0.264 g/mL

Compound: CC(C)(CCCCOCCCCC(C)(C)C(=O)[O-])C(=O)[O-].[Ca+2] [CD-3135]
- Bulk Density Loose [1]: 0.242 g/mL
- Bulk Density Tapped [1]: 0.379 g/mL

Compound: CC(C)(CCCCOCCCCC(C)(C)C(=O)[O-])C(=O)[O-].[Ca+2] [CD-3221A]
- Bulk Density Loose [1]: 0.372 g/mL
- Bulk Density Tapped [1]: 0.521 g/mL

Compound: CC(C)(CCCCOCCCCC(C)(C)C(=O)[O-])C(=O)[O-].[Ca+2] [CD-3243]
- Bulk Density Loose [1]: 0.235 g/mL
- Bulk Density Tapped [1]: 0.300 g/mL

Compound: CC(C)(CCCCOCCCCC(C)(C)C(=O)[O-])C(=O)[O-].[Ca+2] [CI-1027, 6-(5-carboxy-5-methyl-hexyloxy)-2,2-dimethylhexanoic acid monocalcium salt (1:1)]
- 14C peaks found in hepatocyte incubation (rat hepatocytes): two major ^14C peaks, intact drug, and a glucuronide conjugate
- absorption [2]: rapidly absorbed
- half-life [2, 13]: 9 to 15 h
- metabolite detected in bile and urine [3]: acyl-glucuronide is detected
- share of plasma radioactivity that was unchanged drug [3]: ~100%
- decrease in plasma Lp(a) compared to mice dosed with vehicle alone ([4]; female mice, 3 mg/kg/day oral gavage, after 1 week): −15%
- decrease in plasma Lp(a) compared to mice dosed with vehicle alone ([4]; female mice, 10 mg/kg/day oral gavage, after 1 week): −41%
- decrease in plasma Lp(a) compared to mice dosed with vehicle alone ([4]; female mice, 30 mg/kg/day oral gavage, after 1 week): −54%
- decrease in plasma Lp(a) compared to mice dosed with vehicle alone ([4]; female mice, 100 mg/kg/day oral gavage, after 1 week): −61%
- HDL cholesterol (lipoprotein profiles by HPLC) ([4]; female mice, after 1 week): remained unchanged
- LDL cholesterol (lipoprotein profiles by HPLC) ([4]; female mice, after 1 week): significant decreases
- decrease in plasma apoB ([4]; female mice, after 1 week): up to 30%
- maximum decrease in total plasma cholesterol ([4]; female mice, after 1 week): 32%
- ratio of HDL cholesterol to VLDL+LDL cholesterol ([4]; with treatment, control value 0.39): 0.65
- In vitro binding to plasma proteins (plasma proteins): species and concentration dependent
- primary binding protein (plasma proteins): Albumin
- Lp(a) lowering ([5]; 3 mg/kg/day): −9%
- Lp(a) lowering ([5]; 10 mg/kg/day): −23%
- Lp(a) lowering ([5]; 30 mg/kg/day): −64%
- Lp(a) lowering ([5]; 100 mg/kg/day): −68%
- Lp(a) lowering ([5]; 300 mg/kg/day): −87%
- HDL cholesterol ([5]; 3-300 mg/kg): decreased
- total plasma cholesterol ([5]; 3-300 mg/kg): decreased
- Mean recovery in bile ([6]; Fistula Rat): 87.5 percent ^14C dose
- Mean recovery in feces ([6]; Fistula Rat): 0.72 percent ^14C dose
- Mean recovery in urine ([6]; Fistula Rat): 10.5 percent ^14C dose
- Mean total recovery ([6]; Fistula Rat): 98.7 percent ^14C dose
- Mean recovery in feces ([6]; Intact Rat): 56.9 percent ^14C dose
- Mean recovery in urine ([6]; Intact Rat): 37.0 percent ^14C dose
- Mean total recovery ([6]; Intact Rat): 93.9 percent ^14C dose
- Mean recovery in bile ([7]; Fistula Monkey): 42.0 percent ^14C dose
- Mean recovery in feces ([7]; Fistula Monkey): 3.82 percent ^14C dose
- Mean recovery in urine ([7]; Fistula Monkey): 62.2 percent ^14C dose
- Mean total recovery ([7]; Fistula Monkey): 108 percent ^14C dose
- Mean recovery in feces ([7]; Monkey (intact)): 17.3 percent ^14C dose
- Mean recovery in urine ([7]; Monkey (intact)): 78.1 percent ^14C dose
- Mean total recovery ([7]; Monkey (intact)): 95.4 percent ^14C dose
- 14C peaks found in hepatocyte incubation (monkey hepatocytes): two major ^14C peaks, intact drug, and a glucuronide conjugate
- absorption [8]: rapidly absorbed
- half-life [8, 13]: 5 to 7 h
- absorption [9]: rapidly absorbed
- half-life [9, 13]: 17 to 31 h
- Oral bioavailability [10]: appeared to be high
- enterohepatic recirculation [10]: seemed to undergo enterohepatic recirculation
- linearity of pharmacokinetics [10]: nonlinear
- 14C peaks found in hepatocyte incubation (dog hepatocytes): two major ^14C peaks, intact drug, and a glucuronide conjugate

Compound: CC(C)(CCCCOCCCCC(C)(C)C(=O)O)C(=O)O [Example 1, 6-(5-carboxy-5-methyl-hexyloxy)-2,2-dimethylhexanoic acid monocalcium salt hydrate, Crystalline Form 1]
- electrostatic character of bulk product ([11]; listed as CI-1027 hydrate Crystalline Form 1): less electrostatic than the amorphous form
- electrostatic character of bulk product ([11]; listed as Crystal Form 1): less capable of retaining an electrostatic charge
- Physical Properties of Solid (hygroscopic status) [12]: None to Slight Hygroscopic

Compound: CC(C)(CCCCOCCCCC(C)(C)C(=O)O)C(=O)O [Example 12, 6-(5-carboxy-5-methyl-hexyloxy)-2,2-dimethylhexanoic acid monocalcium salt. Crystalline Form 2]
- electrostatic character of bulk product ([11]; listed as Crystal Form 2, monocalcium salt): less capable of retaining an electrostatic charge

Compound: CC(C)(CCCCOCCCCC(C)(C)C(=O)[O-])C(=O)[O-].C[N+](C)(C)CCO.C[N+](C)(C)CCO [di-choline]
- Physical Form [12]: Oil

Compound: CC(C)(CCCCOCCCCC(C)(C)C(=O)[O-])C(=O)[O-].[K+].[K+] [di-potassium]
- Physical Form [12]: Solid
- Physical Properties of Solid (hygroscopic status) [12]: Very Hygroscopic

Compound: CC(C)(CCCCOCCCCC(C)(C)C(=O)[O-])C(=O)[O-].[Na+].[Na+] [di-sodium]
- Physical Form [12]: Solid
- Physical Properties of Solid (hygroscopic status) [12]: Very Hygroscopic

Compound: CC(C)(CCCCOCCCCC(C)(C)C(=O)O)C(=O)[O-].C[N+](C)(C)CCO [mono-choline]
- Physical Form [12]: Oil
